From patent US20230346912A1 (priority 2022, published 2023)

System: spleen lymphocytes of B2 haplotype chickens infected with H9N2 AIV
Format: cell-based, chicken

Sequence	immunogenicity of individual peptide (IFN-γ ELISpot)
AVKGIGTMV [Polypeptide P10]	considered immunogenic
DVSFQGRGV [Polypeptide P11]	considered immunogenic
WIIRNWETV [Polypeptide P257]	considered immunogenic
MSRDWLMLI [Polypeptide P373]	considered immunogenic
